What was measured:
[1] = system: galactitol (dulcitol) accumulation in tissues of galactosemic rats; experiment: Galactosemic rat test: lowering of galactitol (dulcitol) accumulation in lens, sciatic nerve and diaphragm; assay type: in vivo, rat (Sprague-Dawley, male); parameters: key to % Lowering Galactitol Accumulation In vivo, L: NS: not significant; conditions: 4 days, vs untreated galactosemic rats; for % Lowering Galactitol Accumulation In vivo, D: diaphragm; for % Lowering Galactitol Accumulation In vivo, L: lens
Excerpt: The aldose reductase inhibiting property of the compounds of this invention and the utilization of the compounds in preventing, diminishing and alleviating diabetic complications are demonstrable in experiments using galactosemic rats, see Dvornik et al., Science, 182, 1146 (1973). Such experiments are exemplified hereinbelow after the listing of the following general comments pertaining to these experiments:
(a) Four or more groups of six male rats, 50-70 g, Sprague-Dawley strain, were used. The first group, the control group, was fed a mixture of laboratory chow (rodent Laboratory Chow, Purina) and glucose at 20% (w/w %) concentration. An untreated galactosemic group was fed a similar diet in which galactose was substituted for glucose. The third group was fed a diet prepared by mixing a given amount of the test compound with the galactose containing diet. The concentration of galactose in the diet of the treated groups was the same as that for the untreated galactosemic group.
(b) After four days, the animals were killed by euthanization. Both the lens and sciatic nerve were removed, weighed and stored frozen for polyol determination.
(c) The polyol determination was performed by a modification of the procedure of M. Kraml and L. Cosyns, Clin. Biochem., 2,373 (1969). Only two minor reagent changes were made: (a) the rinsing mixture was an aqueous 5% (w/v) trichloroacetic acid solution and (b) the stock solution was prepared by dissolving 25 mg of dulcitol in 100 mL of an aqueous trichloroacetic acid solution. [N.B.: For each experiment the average value found in the tissue from rats fed the glucose diet was subtracted from the individual values found in the corresponding tissue in galactose-fed rats to obtain the amount of polyol accumulated.] The aldose reductase inhibiting effects of the compounds of formula (I) were also tested by employing an in vitro testing procedure similar to that described by S. Hayman and J. H. Kinoshita, J. Biol. Chem., 240, 877 (1965). In the present case the procedure of Hayman and Kinoshita was modified in that the final chromatography step was omitted in the preparation of the enzyme from bovine lens.
The figures under L, N, and D represent the percentage decrease of dulcitol accumulation in the tissues of the lens, sciatic nerve, and diaphragm, respectively, for treated rats as compared to untreated rats.

aldose reductase = molecular target: T1, aldose reductase (Bos taurus, UniProt P16116); experiment: In vitro aldose reductase inhibition (modified procedure of Hayman and Kinoshita, enzyme from bovine lens); assay type: biochemical
T1 construct: preparation of the enzyme from bovine lens; from tissue; host or cells: bovine lens
Experimental: Only two minor reagent changes were made: (a) the rinsing mixture was an aqueous 5% (w/v) trichloroacetic acid solution and (b) the stock solution was prepared by dissolving 25 mg of dulcitol in 100 mL of an aqueous trichloroacetic acid solution. [N.B.: For each experiment the average value found in the tissue from rats fed the glucose diet was subtracted from the individual values found in the corresponding tissue in galactose-fed rats to obtain the amount of polyol accumulated.] […] In the present case the procedure of Hayman and Kinoshita was modified in that the final chromatography step was omitted in the preparation of the enzyme from bovine lens.

[2] = column headed 10^5 (concentration unit not given)
[3] = column headed 10^-6 (concentration unit not given)
[4] = column headed 10^-7 (concentration unit not given)

Row | Structure (SMILES) | % Lowering Galactitol Accumulation In vivo, D ([1]; 28 mg/kg/day in diet) | % Lowering Galactitol Accumulation In vivo, L ([1]; 28 mg/kg/day in diet) | % Inhibition In Vitro (aldose reductase; [2]) | % Inhibition In Vitro (aldose reductase; [3]) | % Inhibition In Vitro (aldose reductase; [4]) | % Lowering Galactitol Accumulation In vivo, D ([1]; 11 mg/kg/day in diet) | % Lowering Galactitol Accumulation In vivo, D ([1]; 49 mg/kg/day in diet) | % Lowering Galactitol Accumulation In vivo, L ([1]; 11 mg/kg/day in diet) | % Lowering Galactitol Accumulation In vivo, L ([1]; 49 mg/kg/day in diet)
1 | CN1C(=O)c2ccc(Br)cc2C2(CC(=O)N2)C1=O (stereo not drawn) [Br CH3, 6'-bromo-2'-methylspiro[azetidine-2,4'(1'H)-isoquinoline]-1',3',4(2'H)-trione] | 86% | 36% | 96% | 77% | 16% |  |  |  | 
2 | CN1C(=O)c2ccc(Cl)cc2C2(CC(=O)N2)C1=O (stereo not drawn) [Cl CH3, 6'-chloro-2'-methylspiro[azetidine-2,4'(1'H)-isoquinoline]-1',3',4(2'H)-trione] |  |  | 84% | 75% | 22% | 70% | 82% | NS | 66%

Source: patent US5130425A, “Spiro-lactams and analogs thereof useful as aldose reductase inhibitors” (American Home Products Corporation, priority 1991, dated 1992)
